Data published in US5360613A, “Method of reducing blood levels of total cholesterol and low-density lipoprotein cholesterol” (Iowa State University Research Foundation, Inc., priority 1993, dated 1994).

Columns and labels:
plasma cholesterol = assay: Lamb feeding study, plasma cholesterol (Example II, Table B); format: in vivo, lambs
Protocol: In view of the encouraging results of Example I, a large mammal study was carried out with lambs. HMB was administered in the form of Ca-HMB.
Cross-bred lambs were obtained from a research flock. Males were selected from a pool of 108 rams while females were selected from a pool of 63 females. Selection was based on weight range, breed and previous performance. Breeding consisted of Dorset, Polypay and Suffold crosses. Males were divided into 5 weight blocks and females into 3 weight blocks. The two heaviest male blocks contained 27 lambs, allotted to 3 pens. All other blocks contained 18 lambs, allotted to 2 pens. Animals were weighed on consecutive days prior to starting the experiment. All animals were shorn 100 days into the experiment. The animals were housed in a single confinement unit with uniform pens. The feeders were concrete bunks with water supplied by several nipple waterers per pen. Dirt flooring was bedded with oat straw when necessary. Weight blocks were placed in adjacent pens with treatment randomly assigned to the blocks. The ration was complete in all nutrients for growing sheep. The diet was formulated to contain protein in excess of the normal requirement in an effort to assure that protein was not a limiting factor for any growth response. The feeding schedule consisted of two feedings per day with the amount controlled so that the animals had eaten all the feed from the previous feeding before being fed again. Also with the feed allotment, a top-dressing of 20 g of either a control premix containing HMB was added at the equivalent of 0.5 gram per animal per day and 1.5 gram per animal per day.
Ca-HMB was prepared by minor modification of the method of Coffman, et al. J. Am. […] Each batch was given a lot number and the purity assessed by high performance liquid chromatography. A single peak was measured when HMB was chromatographed on a C18 column and eluted with 0.01M phosphate buffer, pH 7.0. […]
Blood was collected from each animal. The plasma was analyzed for cholesterol using an Abbott Spectrum Diagnostic system. […] A linear effect of HMB level was evaluated.

[1] = system: plasma cholesterol and triglycerides; assay: Pig feeding study, plasma cholesterol and triglycerides (Example III, Table C); format: in vivo, pigs; conditions: for Plasma Triglycerides: control 107, ns; for Plasma Cholesterol: control 135
Protocol: A further large mammal study was carried out with pigs. Pigs comprise test animals which are more similar in certain respects to humans than ruminants.
Control: 60 g. of calcium
The pigs were housed in pens of two animals each and were allowed ad libitum access to food and water. Pigs were approximately 160 lbs. at the start of the experiment and were 240 lbs. at the end. All pigs were castrate males. At day 28 and day 43 of the experiment blood was collected from the anterior vena cava by venipuncture. Blood was collected into EDTA containing tubes, centrifuged and frozen until analyzed. At approximately 100 days of the experiment half of the animals (32) were slaughtered, and at 120 days the remaining 32 animals were slaughtered. At the time of slaughter the abdominal aorta was dissected out and external fat removed. The aorta was then split lengthwise and 1/2 fixed in formaldehyde for 48 hours. At this time aortas were removed, stretched over a 6 inch stick, washed in ethanol and stained with a lipid stain for 2 hours. After a 1 hour wash aortas were blotted and examined. All the aortas from a group were laid out on a white bench and arranged in order from least sever to most sever. The least sever had no dark red streaks on the aorta or around the small vertebral vessels leaving the aorta. The most sever lesions had multiple streaks in the middle of the aorta and dark red deposits in turbulent areas such as the branching of vessels from the aorta. The ordered aortas were then assigned a consecutive decimal number. The first (least severe) was assigned 0 and the most severe was assigned 3.2 Plasma cholesterol and triglycerides were measured by an enzyme-colorimetric assay (Sigma).
statistical analysis was accomplished by the general linear model procedure of the Statistical Analysis System (SAS). The model included the main effects of treatment and pen number. T-tests were conducted from the ANOVA standard error, to compare the HMB treatments to the control. […] It appeared that HMB can partially prevent the formation of pre-atherosclerotic lesions. No effect of KIC was noted relative to any parameter.

[2] = Human dose-response study, body weight and body fat (Example V, Table E); format: in vivo, humans; conditions: study combined with Example IV
Protocol: (§1) Higher dose levels than in Example IV of Ca-HMB were tested in humans. The objective was to obtain an indication of whether higher doses could be safely administered, and also whether higher doses might provide a greater reduction in total cholesterol and LDL cholesterol.
(§2) Normal humans were used in the study. Ca-HMB was administered in 250 mg capsules, and the subjects were instructed to take the capsules in 4 equal doses daily. No control of diet was attempted except they were instructed to eat as they normally would. On alternate days the subjects had blood drawn before the morning meal and before they took the morning HMB dose. Four subjects were studied for dose level of 05., 1, 2 and 4 grams per day.
(§3) Results from all samples of each subject were subjected to linear regression and the slope and intercept used to calculate the % change in concentration after 8 days on treatment. The percentage changes were then subjected to ANOVA-regression to determine if there was a linear effect of dosage on the parameter. The dose-response effect (p<) is listed in the linear effect column of Table E.

blood cholesterol = assay: Human dose-response study, blood cholesterol, triglycerides and glucose (Example V, Table E); format: in vivo, humans
Protocol: as §1, §2, §3

[3] = system: acetate incorporation into cholesterol; conditions: added to the media at very high concentrations; cited from earlier work
[4] = 4 grams per day, end of the one week study

SMILES: CC(C)(O)CC(=O)O [HMB, β-hydroxy-β-methylbutyric acid]
- Plasma Cholesterol (plasma cholesterol; 0.5 g HMB daily (Ca-HMB), control 54.3, linear effect 0.05): 51.3
- Plasma Cholesterol (plasma cholesterol; 1.5 g HMB daily (Ca-HMB), control 54.3, linear effect 0.05): 48.1
- Plasma Cholesterol (plasma cholesterol; oral consumption, lambs): decreased plasma cholesterol
- Plasma Triglycerides ([1]; dietary .01%): 105 mg %
- Plasma Cholesterol ([1]; dietary .01%, HMB C vs. .01% p .14): 120 mg %
- Plasma Triglycerides ([1]; dietary .05%): 109 mg %
- Plasma Cholesterol ([1]; dietary .05%, HMB p .05, KIC ns): 118 mg %
- effect on body fat [2]: extremely suggestive of an effect on body fat
- cholesterol (blood cholesterol; 2 grams daily): appeared to decrease cholesterol
- decrease of LDL cholesterol (blood cholesterol; [4]): about 6%
- decrease of total cholesterol (blood cholesterol; [4]): about 6%
- cholesterol (blood cholesterol; doses lower than 2 grams daily): no effect was clearly observable
- blood cholesterol (blood cholesterol; over the course of the week): decreased in a dose-responsive manner
- inhibition of acetate incorporation [3]: no significant inhibition
